Among the data in PubChem BioAssay AID449764 (Southern Research Specialized Biocontainment Screening …, 2010) are IC50 and IC90 values, retold here.

Where a SMILES comes first, the peptide text is derived from it. [ ]: non-standard residue; d: D form. The star is where a group is joined. ξ: configuration not given here. ξF = NC(Cc1ccccc1)C(=O)O; Cbz = O=C(OCc1ccccc1)* A value given as a limit tells only on which side of the number the result lay.

Usually IC50 stands for the concentration that gives 50% inhibition. For orientation: IC90 means the point of the concentration-response curve where the effect stands at 90%. Higher therefore signals weaker potency.

For the assay, the system named is Mycobacterium tuberculosis H37Rv growth inhibition, no glycerol. The assay is described as follows: Mycobacterium tuberculosis H37Rv growth inhibition, no glycerol, confirmatory dose response (AID 449764).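 For all read-outs here: growth read after 7 days of incubation.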 The note with it: for IC90: measured here: IC90 growth inhibition.

Turning to `CC(C)NC(=O)c1onc(CSc2ccc(F)c(F)c2)c1C(=O)O`, the IC50 is 17.8 µM and the IC90 was determined as 22.9 µM.

Turning to `C[n+]1c(-c2ccccc2)c2cc(N)ccc2c2ccc(N)cc21`, the IC50 is 16.4 µM and the 90% effect concentration (IC90) worked out at 20.9 µM.

For the compound `CCOC(=O)CNC(=O)C(Cc1ccccc1)NC(=O)OCc1ccccc1` (stereo not given) (Cbz-[ξF]-Gly-OEt), the IC50 was 3.04 µM and the IC90 was found to be 3.46 µM.

In the case of `CN1CCN(Cn2cc(/C=C/C(=O)c3ccccc3)c3ccccc32)CC1`, the concentration for half-maximal inhibition (IC50) is 19.8 µM and the IC90 came to 39.3 µM.

For `O=C(NNc1nc2ccccc2s1)c1ccccc1F`, the IC50 was 39.9 µM and the IC90 stood at 59.2 µM.

On to `CCCn1nc(C(=O)NNC(=O)c2ccc(C)c(C)c2)c2ccccc2c1=O`, for which the IC50 was 24.6 µM and the IC90 came to 27.9 µM.

As to `C1=C(c2c[nH]c3ccccc23)CCNC1`, the 50% inhibitory concentration (IC50) was 56.5 µM and the IC90 stood at 73.9 µM.

On to `Cc1nc([N+](=O)[O-])c(Br)n1CC(=O)c1ccc2ccccc2c1`, for which the IC50 is 11.2 µM and the IC90 came out at 12.7 µM.

As to `COc1ccc(CNC[C@@H](CCCCN(C)Cc2ccc(OC)cc2)N2C[C@H](c3ccccc3)N(CCc3ccc(Cl)c(Cl)c3)C(=O)C2=O)cc1`, the IC50 was 10.5 µM and the 90% effect concentration (IC90) was found to be 14 µM.

For `Cc1nc(SCC(=O)NCC2CCCO2)c2c3c(sc2n1)CCCC3` (stereo not given), the IC50 is 23 µM and the IC90 is 25.2 µM.

In the case of `Cn1c(SCc2ccccc2)nc(N)c(N=O)c1=O`, the half-inhibitory concentration (IC50) is 18.4 µM and the 90% effect concentration (IC90) was 25.6 µM.

With `O=C(NCCCN1CCOCC1)c1cc2c([nH]c3ccccc32)c(-c2cccc(Br)c2)n1`, the IC50 was 18.6 µM and the IC90 was 24.3 µM.

As to `COc1ccc(C(=O)OCC(=O)c2ccc(Br)s2)c(OC)c1`, the IC50 is 73.6 µM and the IC90 is more than 100 µM.

For `CC(/C=C/c1ccccc1)=N\NC(N)=S`, the IC50 was 4.99 µM and the IC90 was found to be 12.3 µM.

On to `CN1OC(COC(=O)c2ccc(Cl)cc2Cl)CC1c1ccccc1` (stereo not given), for which the IC50 is 7.6 µM and the IC90 was determined as 22.3 µM.

For the compound `CC1Cc2ccccc2N1C(=S)NC(=O)c1ccc(Cl)cc1Cl` (stereo not given), the IC50 was 17 µM and the IC90 is more than 100 µM.

As to `O=C(OCC(=O)N1CCCc2ccccc21)c1ccc(S(=O)(=O)C(F)F)cc1`, the IC50 is 37.9 µM and the IC90 was 49.2 µM.

For `CN1CCN(C(=O)/C=C/c2cn(-c3ccccc3)nc2-c2ccc3c(c2)OCCO3)CC1`, the IC90 was more than 100 µM.

Consider `c1ccc(-c2nc3c(ccc4ccccc43)[nH]2)nc1`, for which the IC50 is 31.4 µM and the IC90 is 68.5 µM.

In the case of `CC1CCN(C(=O)C2CCN(c3nnc(-n4cccc4)s3)CC2)CC1`, the IC50 is 3.51 µM and the IC90 came to 6.13 µM.

Take `CCc1ccc(Nc2n[n+](C)c(-c3ccncc3)s2)cc1`: the IC50 was 42.1 µM and the IC90 was found to be 47.6 µM.

`C/C(=N\NC(N)=S)C1C2C3CC4C5CC(C42)C1C53` (stereo not given): the IC50 is 22.1 µM and the 90% effect concentration (IC90) turned out to be 31.8 µM.

Consider `c1ccc2nc(-c3ccc(-n4ccnc4)cc3)ccc2c1`, for which the IC50 was 31 µM and the IC90 turned out to be 42.5 µM.

Turning to `COc1cc2c(cc1OC)C(c1cc(Br)ccc1F)N(C(=O)CCl)CC2` (stereo not given), the IC50 was 16.6 µM and the concentration for an effect of 90% (IC90) amounted to 23 µM.

With `O=c1c(Cl)c2oc3ccccc3nc-2c2ccccc12`, the IC50 was 12.1 µM and the IC90 turned out to be 17.9 µM.

Turning to `Cc1ccc2[nH]c(C(=O)NN=C3CCCCC3)c(-c3ccccc3)c2c1`, the IC50 was 33.6 µM and the 90% effect concentration (IC90) amounted to 53.3 µM.

For the compound `CCc1cccc2c(C(=O)CCl)c[nH]c12`, the IC50 was 4.05 µM and the IC90 came out at 7.83 µM.

As to `Cc1ccc(-n2cc(CN(C)Cc3nccn3C)c(-c3cccc(C)c3)n2)cc1`, the IC50 is 13.1 µM and the IC90 worked out at 17.4 µM.

On to `N#C/C(=N/Nc1ccc(OC(F)(F)F)cc1)C(N)=S`, for which the half-inhibitory concentration (IC50) was 1.19 µM and the IC90 came to 1.74 µM.

Turning to `OCC(O)/C=N/Nc1nc(Nc2ccccc2)nc(Nc2ccccc2)n1` (stereo not given), the IC50 was 14 µM and the IC90 came out at 24.1 µM.

For the compound `Clc1cc(Cl)cc(Nc2ncn[nH]2)c1`, the IC50 was 64.6 µM and the IC90 was more than 100 µM.

For the compound `O=C(OCn1nnc2ccccc2c1=O)C1CCCCC1`, the IC50 is 5.88 µM and the IC90 worked out at 6.69 µM.

For the compound `CN(CC(=O)Nc1ccccc1Br)C(=O)c1cccnc1Nc1cccc(C(F)(F)F)c1`, the half-maximal inhibitory concentration (IC50) is 35 µM and the IC90 stood at 48.7 µM.

Regarding `CCN1/C(=C/C=C/c2oc3ccc(-c4ccccc4)cc3[n+]2CC)Oc2ccc(-c3ccccc3)cc21`, the IC50 is 5.81 µM and the IC90 was 6.37 µM.

Turning to `CCOC(=O)C1(CCOc2ccccc2)CCN(Cc2cccc(-n3cccn3)c2)CC1`, the IC50 was 28.1 µM and the IC90 turned out to be 34.5 µM.

As to `CCCC(NCC(O)COc1ccc(-c2ccccc2)cc1)c1ccccc1` (stereo not given), the IC50 is 12.8 µM and the IC90 came to 14.7 µM.

Take `CC(NC(=O)CCl)c1ccc(Cl)c(Cl)c1` (stereo not given): the IC50 was 4.1 µM and the IC90 stood at 7.74 µM.

Regarding `CCOC(=O)c1cnc2ccc(OCC)cc2c1N1CCN(c2ccccc2)CC1`, the IC50 is 25.9 µM and the IC90 turned out to be 56.7 µM.

As to `CC(C)Cc1nc2oc3c(N4CCN(CCO)CC4)ncnc3c2c2c1CCCC2`, the IC50 was 18.3 µM and the IC90 is 24.9 µM.

As to `CC(C)(C)c1ccc(C(O)CCCN2CCC(C(O)(c3ccccc3)c3ccccc3)CC2)cc1` (stereo not given), the IC50 was 12 µM and the IC90 was 13.7 µM.

The compound `CCCCCNc1nc(N2CCCC2)c2c(c1C#N)CCN(C)C2` had an IC90 of more than 100 µM.

`CCc1nnc(NS(=O)(=O)c2ccc(N/C=C\C(=O)c3cccc(OC)c3)cc2)s1`: the IC50 is 38.5 µM and the IC90 turned out to be 53 µM.

On to `CC(C)OC(=O)c1ccc(NC(=S)NC(=O)c2cncc(Br)c2)cc1`, for which the concentration for an effect of 90% (IC90) was more than 100 µM.

Consider `CCO[C@H]1OC(C(=O)NCc2nc3ccccc3[nH]2)=C[C@@H](c2csc3ccccc23)[C@@H]1CCCO`, for which the IC50 is 36.5 µM and the IC90 turned out to be 49.2 µM.

For the compound `O=C(Nc1ccc(N2CCN(C(=O)c3ccco3)CC2)cc1)C(c1ccccc1)c1ccccc1`, the IC50 is 24.1 µM and the IC90 turned out to be 27.2 µM.

As to `CC(C)CNc1nnnc2c1sc1nc(N3CCOCC3)c3c(c12)CC(C)(C)SC3`, the IC90 is more than 100 µM.

Consider `COc1cc(C(=O)N/N=C/c2cc([N+](=O)[O-])cs2)cc(OC)c1OC`, for which the IC50 is 8.58 µM and the IC90 was more than 100 µM.

Regarding `O=C1/C(=C/Nc2ccc3c(c2)OCO3)CCc2ccccc21`, the IC50 is 74.7 µM and the concentration for an effect of 90% (IC90) was more than 100 µM.

As for `O=c1c(Cl)nc2cc(Cl)ccc2n1CCNc1ncc(C(F)(F)F)cc1Cl`, the IC50 was 2.97 µM and the IC90 is 3.37 µM.

As to `O=C(CN1CCC(n2nnc3cc(C(F)(F)F)ccc32)CC1)NCc1cccs1`, the IC50 is 37.2 µM and the IC90 was determined as 47.9 µM.

Turning to `CCCCN1C(=O)C2(NNc3ccccc3O2)c2ccccc21` (stereo not given), the IC50 is 92.1 µM and the IC90 was more than 100 µM.

Consider `Cc1ccc(OCCN2CCN(c3ncnc4sc(C)c(C)c34)CC2)cc1`, for which the IC50 was 53.5 µM and the IC90 was 79.3 µM.

`Cc1cc(C)n(-c2nc(Nc3ccccc3C(F)(F)F)nc(-n3nc(C)cc3C)n2)n1`: the IC50 is 1.3 µM and the IC90 was found to be 2.01 µM.

As for `Cc1ccc2nc(-c3ccncc3)cc(-c3ccccc3)c2c1`, the IC50 was 43.8 µM and the IC90 amounted to 48.6 µM.

For the compound `COc1ccc(NC(=O)CSc2nnc(-c3ccccn3)n2N)cc1Cl`, the 50% inhibitory concentration (IC50) was 55.6 µM and the IC90 is more than 100 µM.

On to `CCOC(=O)c1nnc(-c2ccccc2)nc1NCc1ccccc1`, for which the half-maximal inhibitory concentration (IC50) is 19.2 µM and the IC90 is more than 100 µM.

With `CCOC(=O)c1c(C)n(-c2ccc(C)cc2)c2ccc(OCC(O)CNCC3CCCO3)cc12` (stereo not given), the IC50 is 22.8 µM and the IC90 is 25.7 µM.

In the case of `CCOC(=O)/C(=N/Nc1ccccc1)c1csc(Nc2ccccc2)n1`, the IC50 is 41.6 µM and the IC90 is more than 100 µM.

Consider `COc1ccc(C(CCN2CCCCC2)c2c(OC)cc(OC)c3c(-c4ccccc4)cc(=O)oc23)cc1` (stereo not given), for which the IC50 is 18.9 µM and the IC90 is 26.8 µM.

On to `O=C(c1cc([N+](=O)[O-])cc([N+](=O)[O-])c1)N(Cc1nnc(-c2ccccc2Cl)o1)C1CC1`, for which the IC50 is 15.8 µM and the IC90 stood at 23.5 µM.

For the compound `O=C(NC1CCCC(C(F)(F)F)C1)c1ccc([N+](=O)[O-])o1` (stereo not given), the IC50 is 17.9 µM and the IC90 was 28.3 µM.

As for `CC1(C)CC(NC(=O)c2ccc(Cl)c(S(=O)(=O)N(Cc3ccccc3)c3ccccc3)c2)CC(C)(C)N1`, the half-maximal inhibitory concentration (IC50) is 28.3 µM and the IC90 was 43.4 µM.

In the case of `Cc1ccc(C2C3=C(CC(C)(C)CC3=O)N=C3c4ccccc4C(=O)C32)cc1` (stereo not given), the IC50 was 63.6 µM and the IC90 came out at 87.5 µM.

As for `O=C(Oc1ccccc1-c1nnco1)c1ccc(Cl)cc1`, the IC50 is 27.8 µM and the IC90 was 73.6 µM.

Consider `Cc1ccc(Cl)cc1N1CCN(CC(=O)NC2CCCc3ccccc32)CC1` (stereo not given), for which the IC50 was 35.6 µM and the 90% effect concentration (IC90) is 51.1 µM.

Turning to `O=C(CSC(=S)N1CCCC1)c1cc(Br)cc(Br)c1O`, the half-inhibitory concentration (IC50) was 41.2 µM and the IC90 amounted to 45.4 µM.

As to `Cc1cc(/C=C\c2ccc3cc(N(C)C)ccc3[n+]2C)c(C)n1-c1ccccc1`, the IC50 is 3.26 µM and the IC90 is 4.49 µM.

As to `CC(C)(C)OC(=O)NNc1c2ccccc2nc2ccccc12`, the IC50 is 22.6 µM and the IC90 was 25.2 µM.

Turning to `CCCCCCC#Cc1ccc2c(c1)COc1c3ccccc3nn1-2`, the IC50 is 75.5 µM and the IC90 is more than 100 µM.

For the compound `CN(C)c1ccnc2c[cH-]cc12.[Fe].c1ccc(-[c-]2[c-](-c3ccccc3)[c-](-c3ccccc3)[c-](-c3ccccc3)[c-]2-c2ccccc2)cc1` (stereo not given), the IC50 is 14.3 µM and the IC90 was 19 µM.

As for `Cc1cc(C)cc(NC(=O)c2ccc(Cn3nc(C)c(Cl)c3C)o2)c1`, the IC50 is 34.8 µM and the IC90 was determined as 48.3 µM.

Consider `Nc1c(-c2ccccn2)cnn1-c1nc(-c2ccc(F)cc2)cs1`, for which the IC50 is 59.7 µM and the IC90 is more than 100 µM.
